According to US20240391912A1, “MORPHIC FORMS OF CFT7455 AND METHODS OF MANUFACTURE THEREOF” (C4 THERAPEUTICS, INC., priority 2022, published 2024):
Converted amounts (≈) assume the structure as drawn. Values belong to the compound of their own block, whether it stands above or below them.

Tests used:
[1] = Crystallization of Compound 5 from hot saturated solutions by fast cooling; type: physicochemical; conditions: fast cooling to about 0° C.
Description: Based on approximate solubility results, about 30 mg of Compound 5 Form V was dissolved in a minimal amount of selected solvent at 50° C. […] No precipitate came out by fast cooling.

[2] = Approximate solubility of Compound 5 polymorphs in EtOH:DCM (v:v=1:4); type: physicochemical; conditions: EtOH:DCM (v:v = 1:4), 25° C.
Description: Four polymorphs (Form V, Form VI, Form VII and Form VIII) were weighed respectively and a suitable amount of solvent mixture EtOH:DCM (v:v=1:4) was added. The obtained samples were stirred at a rate of 400 rpm at 25° C.

[3] = Crystallization of Compound 5 at room temperature by fast evaporation; type: physicochemical
Description: Based on approximate solubility results, about 20 mg of Compound 5 Form V was dissolved in 1-6 mL of solvents. […] The solid residue was investigated by XRPD. For samples with different XRPD patterns, ^1H-NMR was performed.

[4] = Approximate solubility of Compound 5 Form V at 25° C. (visual observation / HPLC); type: physicochemical; conditions: for solubility: solubilized at about 25° C.
Description: About 5 mg of Compound 5 Form V was weighed to an 8 mL glass vial. 100 μL aliquots of each solvent were added to dissolve the drug substance at 25° C. Vortex and sonication were applied to assist dissolution. The maximum volume of each solvent added is 1 mL. Approximate solubility was determined by visual observation.
For low solubility samples: Aliquots of selected solvent were added to 5 mg of Compound 5 create a suspension. The suspensions were kept at 25° C. for 24 hours. The suspension was taken out and centrifuged. To eliminate solvent effect, 50 μL or 100 μL of supernatant was added into a 2 mL glass vial and evaporated at ambient condition (22-25° C., 30-60% RH).

[5] = Characterization of polymorphs and pseudo-polymorphs of Compound 5; type: physicochemical
[6] = Crystallization of Compound 5 by addition of anti-solvent; type: physicochemical
Description: The obtained solutions were filtered through a 0.45 μm syringe membrane filter. […] Precipitates were investigated by XRPD. For samples with different XRPD patterns, ^1H-NMR was performed.

[7] = Equilibration of Compound 5 Form V with solvents at 25° C. for 1 week (XRPD); type: physicochemical
Description: The obtained suspensions were centrifuged at 14,000 rpm. The solid parts (wet cakes) were investigated by XRPD.

[8] = system: relapsed/refractory (r/r) MCL; conditions: r/r subjects with MCL following bortezomib; cited from earlier work
[9] = Solubility of Compound 5 Form VI and Form VIII at 25° C., equilibration for 24 hours (HPLC; XRPD of residual solids); type: physicochemical
Description: 11 mg (for 20 mg/mL target concentration) or 22 mg (for 50-60 mg/mL target concentration) of Compound 5 Form VI and Form VIII (equivalent to 10 mg or 20 mg of anhydrate free base) was weighed into a 4 mL glass vial, respectively. Up to 0.5 mL of potential eluent medium was added. The obtained suspensions/solutions were stirred at 25° C. at 400 rpm for 24 hours and then centrifuged at 25° C. at 14,000 rpm for 5 minutes. The residual solids were characterized by XRPD to determine the physical form. The supernatants (0.1 mL) were evaporated at about 22-25° C./30-60% RH.

[10] = Bulk stability of Compound 5 Form VI and Form VIII at 25° C./60% RH, open container, 1 week (XRPD, HPLC, color); type: physicochemical; conditions: listed as Form VIII
Description: Compound 5 Form VI and Form VIII were placed at 25° C./60% RH in an open container over 1 week. Samples after the stress were characterized by XRPD and HPLC and inspected for color change.

[11] = THF/water (v:v = 1:2.5), 25° C., 24 hours, target conc. 20 mg/mL, listed as Form VIII

Comments ([1]; 1-Methyl-2-pyrrolidinone, 50° C.): Clear solution
Comments ([1]; Acetone, dissolved at 50° C.): Clear solution
Comments ([1]; Benzyl alcohol, 50° C.): Clear solution
Comments ([1]; Chloroform, 50° C.): Clear solution
Comments ([1]; DMF, 50° C.): Clear solution
Comments ([1]; Pyridine, 50° C.): Clear solution
Comments ([1]; THF, 50° C.): Clear solution
Comments ([1]; Trifluoroethanol, 50° C.): Clear solution
Approximate solubility (visual appearance) ([2]; concentration 5 mg/mL): Suspension
Approximate solubility (visual appearance) ([2]; concentration 10 mg/mL, listed as Form V): Suspension
Approximate solubility (visual appearance) ([2]; concentration 20 mg/mL, listed as Form V): Suspension
XRPD ([3]; fast evaporation from 1-Methyl-2-pyrrolidinone): Form VII
XRPD ([3]; fast evaporation from Benzyl alcohol): Form V
XRPD ([3]; fast evaporation from Chloroform): Amorphous form
XRPD ([3]; fast evaporation from DMSO, room temperature, dry nitrogen flow): Form VI
XRPD ([3]; fast evaporation from THF): Form V
Additional analysis (appearance of residue) ([3]; fast evaporation from Trifluoroethanol): Oil
Additional analysis 1H-NMR: DMSO ([3]; residue (Form VI) of fast evaporation from DMSO): ^1H-NMR: 0.4 equiv. DMSO
Additional analysis 1H-NMR: NMP ([3]; residue (Form VII) of fast evaporation from 1-Methyl-2-pyrrolidinone, 2 unknown peaks): ^1H-NMR: 1.6 equiv. NMP;
Solubility (mg/mL) at 25° C. ([4]; 1,4-Dioxane, tested by HPLC): 2.3 mg/mL (≈ 4.9 mM)
Solubility (mg/mL) at 25° C. ([4]; 1-Methyl-2-pyrrolidinone, tested by observation): >50 mg/mL
Solubility (mg/mL) at 25° C. ([4]; 2-Me THF, tested by HPLC): 0.2 mg/mL (≈ 0.426 mM)
Solubility (mg/mL) at 25° C. ([4]; Acetic acid, tested by HPLC): 5.5 mg/mL (≈ 11.7 mM)
Solubility (mg/mL) at 25° C. ([4]; Acetone, tested by HPLC): 3.3 mg/mL (≈ 7.03 mM)
Solubility (mg/mL) at 25° C. ([4]; Acetonitrile, tested by HPLC): 2.2 mg/mL (≈ 4.69 mM)
Solubility (mg/mL) at 25° C. ([4]; Anisole, tested by HPLC): 1.1 mg/mL (≈ 2.34 mM)
Solubility (mg/mL) at 25° C. ([4]; Benzyl alcohol, tested by observation): 12 to 25 mg/mL
Solubility (mg/mL) at 25° C. ([4]; Chloroform, tested by observation): 5 to 10 mg/mL
Solubility (mg/mL) at 25° C. ([4]; DMF, tested by observation): 25 to 50 mg/mL
Solubility (mg/mL) at 25° C. ([4]; DMSO, tested by observation): >50 mg/mL
Solubility (mg/mL) at 25° C. ([4]; Ethanol, tested by HPLC): 0.6 mg/mL (≈ 1.28 mM)
Solubility (mg/mL) at 25° C. ([4]; Ethyl acetate, tested by HPLC): 0.1 mg/mL (≈ 0.213 mM)
Solubility (mg/mL) at 25° C. ([4]; MeOH/DCM (v:v = 1:1), tested by observation): ~5 mg/mL (≈ 10.6 mM)
Solubility (mg/mL) at 25° C. ([4]; Methanol, tested by HPLC): 0.2 mg/mL (≈ 0.426 mM)
Solubility (mg/mL) at 25° C. ([4]; Propylene glycol methyl ether, tested by HPLC): 2.3 mg/mL (≈ 4.9 mM)
Solubility (mg/mL) at 25° C. ([4]; Propylene glycol, tested by HPLC): 3.4 mg/mL (≈ 7.24 mM)
Solubility (mg/mL) at 25° C. ([4]; Pyridine, tested by observation): 25 to 50 mg/mL
Solubility (mg/mL) at 25° C. ([4]; THF, tested by HPLC): 3.8 mg/mL (≈ 8.09 mM)
Solubility (mg/mL) at 25° C. ([4]; Toluene, tested by HPLC): 0.2 mg/mL (≈ 0.426 mM)
Solubility (mg/mL) at 25° C. ([4]; Trifluoroethanol, tested by observation): 25 to 50 mg/mL
solubility ([4]; in 1-methyl-2-pyrrolidinone): at least 50 mg/mL
solubility ([4]; in DMSO): at least 50 mg/mL
Residual solvent (by 1H-NMR): THF [5]: 0.4% residual of
Endothermic onset (by DSC) ([5]; DSC): onset at 220.0 °C
Dehydration (by DSC) ([5]; DSC, listed as Form V): Tonset 38.5° C.;
Crystallinity (by XRPD) ([5]; XRPD method 2): Crystalline
Weight loss (by TGA) ([5]; at 140° C.): 5.1% at 140 °C
Additional analysis 1H-NMR: DMF ([6]; precipitate (Form VIII) from DMF(1.0 mL)/H2O (2.0 mL)): 2 equiv. DMF
XRPD ([6]; solvent DMF(1.0 mL), anti-solvent H2O (2.0 mL)): Form VIII
XRPD ([7]; equilibration in Acetone): Form V
XRPD ([7]; equilibration in Benzyl alcohol): Form V
XRPD ([7]; equilibration in Chloroform): Form V
XRPD ([7]; equilibration in DMF): Form V
XRPD ([7]; equilibration in MeOH/DCM (v:v = 1:1)): Form V
XRPD ([7]; equilibration in Pyridine, wet cake): Form V
XRPD ([7]; equilibration in THF): Form V
XRPD ([7]; equilibration in Trifluoroethanol): Form V
SMILES: O=C1CCC(N2C(=O)c3cccc4c(Cc5ccc(CN6CCOCC6)cc5)ccc2c34)C(=O)N1 (racemic) [Compound 5 Form V]

SMILES: Nc1cccc2c1CN(C1CCC(=O)NC1=O)C2=O (stereo not shown) [lenalidomide]
median duration of response [DOR] [8]: 16.6 months
overall response rate [ORR] [8]: 28%

Approximate solubility (visual appearance) ([2]; concentration 10 mg/mL, listed as Form VIII): Few solids
Approximate solubility (visual appearance) ([2]; concentration 20 mg/mL, listed as Form VIII): Few solids
solubility ([9]; EtOH/DCM (v:v = 1:4), 25° C., 24 hours, target conc. 50-60 mg/mL, LOQ 0.8 μg/mL, listed as Form VIII): 39000 µg/mL (≈ 83.1 mM)
physical form after solubility test ([9]; EtOH:DCM (v:v=1:4), 25° C., 24 h): Physical mixture of Form V and Form VI
XRPD of residual solids ([9]; MeOH/DCM (v:v = 1:2), 25° C., 24 hours, target conc. 50-60 mg/mL): Form V
physical form after solubility test ([9]; MeOH:DCM (v:v=1:2) and THF:water (v:v=1:2.5), 25° C., 24 h): converted to Form V
solubility ([9]; THF/IPA (v:v = 1:2), 25° C., 24 hours, target conc. 20 mg/mL, listed as Form VIII): 1000 µg/mL (≈ 2.13 mM)
XRPD of residual solids [9, 11]: Form V
solubility [9, 11]: 500 µg/mL (≈ 1.06 mM)
physical form after solubility test ([9]; THF:2-propanol (v:v=1:2) and THF:Heptane (v:v=1:2), 25° C., 24 h): converted to Form VI
solubility ([9]; in EtOH/DCM (v:v=1:4), about 25° C., 24 h, listed as Form VIII): ~39000 µg/mL (≈ 83.1 mM)
solubility ([9]; in MeOH:DCM (v:v=1:2) and EtOH:DCM (v:v=1:4), 25° C. for 24 h, listed as Form VIII): 30000 to 40000 µg/mL
bulk stability, physical (form) [10]: converted to Form V
Bulk (HPLC) Purity ([10]; solid state, initial purity 93.1% (Form VI), 95.6% (Form VIII)): 95.6%
Bulk (XRPD) ([10]; solid state): Form V
Dehydration and evaporation of solvent from (by DSC) ([5]; DSC): about 8° C.;
Enthalpy (by DSC) ([5]; DSC, listed as Form VIII): 105 J/g
Melting onset Tonset (by DSC) ([5]; DSC, listed as Form VIII): Tonset 231.4° C.,
Weight loss (by TGA) ([5]; at 200° C.): 4.7% at 200 °C
Residual ion (by IC): Br− ([5]; listed as Form VIII): Br^−: 0.01 equiv.
Residual ion (by IC): Cl− ([5]; listed as Form VIII): Cl^−: 0.005 equiv.;
Residual ion (by IC): Li+ ([5]; listed as Form VIII): Li^+: 0.04 equiv.;
Residual ion (by IC): Na+ ([5]; listed as Form VIII): Na^+: 0.01 equiv.
SMILES: O=C1CCC(N2C(=O)c3cccc4c(Cc5ccc(CN6CCOCC6)cc5)ccc2c34)C(=O)N1 (racemic) [Compound 5 Form VIII]
